“And” between values parts separate entries of the source, which are not always exact repeats. Equal entries are not always repeated. Toxic doses and inconclusive results are not listed. The calls were made as follows: active = survival T/C of 150% or more; inactive = T/C below 125% in these data.
Tested on: P388 leukemia ip, CD2F1 mice, survival T/C
Assay: NCI In Vivo Anticancer Drug Screen. Data for tumor model P388 Leukemia (intraperitoneal) in CD2F1 (CDF1) mice
Conditions: endpoint: median survival time, higher = longer survival
Summary of the method: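 Mice carrying the transplanted tumor received test compound or vehicle. Survival was recorded in each group, and the value is the treated-group measurement divided by that of the vehicle-treated control group.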

[1] = dose: 50.0 mg/kg/injection, schedule: Q01DX005 (ip), vehicle: saline
[2] = dose: 50.0 mg/kg/injection, schedule: Q01DX009 (ip), vehicle: saline with Tween-80
[3] = dose: 100.0 mg/kg/injection, schedule: Q01DX009 (ip), vehicle: saline with Tween-80
[4] = dose: 100.0 mg/kg/injection, schedule: Q04DX003 (ip), vehicle: saline with Tween-80
[5] = dose: 200.0 mg/kg/injection, schedule: Q01DX009 (ip), vehicle: saline with Tween-80
[6] = dose: 60.0 mg/kg/injection, schedule: Q01DX005 (ip), vehicle: saline with Tween-80
[7] = dose: 120.0 mg/kg/injection, schedule: Q01DX005 (ip), vehicle: saline with Tween-80
[8] = dose: 240.0 mg/kg/injection, schedule: Q01DX005 (ip), vehicle: saline with Tween-80
[9] = dose: 25.0 mg/kg/injection, schedule: Q01DX009 (ip), vehicle: saline
[10] = dose: 50.0 mg/kg/injection, schedule: Q01DX009 (ip), vehicle: saline
[11] = dose: 25.0 mg/kg/injection, schedule: Q01DX005 (ip), vehicle: Klucel (hydroxypropylcellulose) (HPC)
[12] = dose: 50.0 mg/kg/injection, schedule: Q01DX005 (ip), vehicle: Klucel (hydroxypropylcellulose) (HPC)
[13] = dose: 100.0 mg/kg/injection, schedule: Q01DX005 (ip), vehicle: Klucel (hydroxypropylcellulose) (HPC)
[14] = dose: 60.0 mg/kg/injection, schedule: Q01DX005 (ip), vehicle: Klucel (hydroxypropylcellulose) (HPC)
[15] = dose: 120.0 mg/kg/injection, schedule: Q01DX005 (ip), vehicle: Klucel (hydroxypropylcellulose) (HPC)
[16] = dose: 240.0 mg/kg/injection, schedule: Q01DX005 (ip), vehicle: Klucel (hydroxypropylcellulose) (HPC)
[17] = dose: 100.0 mg/kg/injection, schedule: Q01DX009 (ip), vehicle: saline
[18] = dose: 12.5 mg/kg/injection, schedule: Q01DX005 (ip), vehicle: saline with Tween-80
[19] = dose: 50.0 mg/kg/injection, schedule: Q01DX005 (ip), vehicle: saline with Tween-80
[20] = dose: 100.0 mg/kg/injection, schedule: Q01DX005 (ip), vehicle: saline with Tween-80
[21] = dose: 200.0 mg/kg/injection, schedule: Q01DX005 (ip), vehicle: Klucel (hydroxypropylcellulose) (HPC)
[22] = dose: 100.0 mg/kg/injection, schedule: Q04DX003 (ip), vehicle: Klucel (hydroxypropylcellulose) (HPC)
[23] = dose: 200.0 mg/kg/injection, schedule: Q04DX003 (ip), vehicle: Klucel (hydroxypropylcellulose) (HPC)

Measured: T/C

C/C=C/C(/C=C/C)(C(=O)OCCN(CC)CC)C(/C=C/C)(/C=C/C)C(=O)OCCN(CC)CC
inactive: [1] 101 % of control | dose: 100.0 mg/kg/injection, schedule: Q01DX005 (ip), vehicle: saline 101 % of control | dose: 200.0 mg/kg/injection, schedule: Q01DX005 (ip), vehicle: saline 97 % of control

COc1ccc2c([O-])c3[n+](cc2c1OC)CCc1cc2c(cc1-3)OCO2
inactive: dose: 50.0 mg/kg/injection, schedule: Q04DX002 (ip), vehicle: saline with Tween-80 103 % of control | dose: 100.0 mg/kg/injection, schedule: Q04DX002 (ip), vehicle: saline with Tween-80 106 % of control | dose: 200.0 mg/kg/injection, schedule: Q04DX002 (ip), vehicle: saline with Tween-80 102 % of control

O=S(=O)(O)O.[Fe]
inactive: dose: 12.5 mg/kg/injection, schedule: Q01DX009 (ip), vehicle: saline with Tween-80 95 % of control | dose: 25.0 mg/kg/injection, schedule: Q01DX009 (ip), vehicle: saline with Tween-80 95 % of control | [2] 86 % of control

O=C(O)c1cc2ccccc2o1
inactive: dose: 25.0 mg/kg/injection, schedule: Q04DX003 (ip), vehicle: saline with Tween-80 100 % of control | dose: 50.0 mg/kg/injection, schedule: Q04DX003 (ip), vehicle: saline with Tween-80 104 % of control | [3] 95 % of control | [4] 104 % of control | [5] 95 % of control

NC(=O)NC(=O)C(Cc1ccc(Cl)cc1)c1ccccc1 (stereo not drawn)
inactive: dose: 30.0 mg/kg/injection, schedule: Q01DX005 (ip), vehicle: saline with Tween-80 96 % of control and 97 % of control | [6] 89 % of control and 94 % of control | [7] 87 % of control and 89 % of control | [8] 88 % of control

CCCCCCCCCCCCCCN1CCOCC1
inactive: dose: 12.5 mg/kg/injection, schedule: Q01DX009 (ip), vehicle: saline 94 % of control | [9] 100 % of control | [10] 100 % of control and 98 % of control

CC(C)(C)OC(=O)NCCCCC(NC(=O)OCc1ccccc1)C(=O)O (stereo not drawn)
inactive: [11] 102 % of control | [12] 100 % of control | [13] 101 % of control

COc1ccccc1N=Nc1c(-c2cccs2)nn(C(N)=S)c1C(F)(F)F
inactive: [14] 99 % of control | [15] 97 % of control | [16] 89 % of control

Cn1c(=O)c2ccccc2c2ccccc21
inactive: [2] 96 % of control | [3] 96 % of control | [5] 95 % of control | dose: 400.0 mg/kg/injection, schedule: Q01DX009 (ip), vehicle: saline with Tween-80 99 % of control

COC(=O)c1ccccc1N=NNc1ccccc1C(N)=O
inactive: [4] 90 % of control | dose: 200.0 mg/kg/injection, schedule: Q04DX003 (ip), vehicle: saline with Tween-80 97 % of control | dose: 400.0 mg/kg/injection, schedule: Q04DX003 (ip), vehicle: saline with Tween-80 99 % of control

NC(=O)C1CNCC(C(N)=O)C1 (stereo not drawn)
inactive: [10] 100 % of control and 98 % of control | [17] 98 % of control | dose: 200.0 mg/kg/injection, schedule: Q01DX009 (ip), vehicle: saline 99 % of control

CCCCOc1cc2c(cc1C(C)c1ccccc1)OCO2 (stereo not drawn)
inactive: [18] 94 % of control | dose: 25.0 mg/kg/injection, schedule: Q01DX005 (ip), vehicle: saline with Tween-80 91 % of control | [19] 101 % of control and 90 % of control

O=C(N/C(=C\c1ccccc1)C(=O)N1CCN(Cc2ccccc2)CC1)c1ccccc1
inactive: [19] 89 % of control | [20] 88 % of control

CCCCCCCCCCCC(=O)NC(=S)Nc1ccccc1C(=O)OC
inactive: [9] 105 % of control | [10] 99 % of control

CCCCCCCCCCCCCCCCCC[N+](C)(C)c1nc(Cl)nc(Cl)n1
inactive: [9] 100 % of control | [10] 91 % of control

COc1cc2c(cc1OC)C(c1cccc(Cl)c1)=NN=C(C)C2
inactive: [14] 105 % of control | [15] 101 % of control | [16] 96 % of control

S=c1[nH]ccs1
inactive: dose: 12.5 mg/kg/injection, schedule: Q01DX009 (ip), vehicle: water 99 % of control | dose: 25.0 mg/kg/injection, schedule: Q01DX009 (ip), vehicle: water 99 % of control | dose: 50.0 mg/kg/injection, schedule: Q01DX009 (ip), vehicle: water 95 % of control

Cn1nnnc1-c1ccc(C(=O)O)cc1
inactive: [11] 102 % of control | [12] 102 % of control and 91 % of control | [13] 96 % of control | [21] 93 % of control

Cc1cc(C)nc(N/N=C/c2c(Cl)cccc2Cl)n1
inactive: dose: 50.0 mg/kg/injection, schedule: Q04DX003 (ip), vehicle: Klucel (hydroxypropylcellulose) (HPC) 99 % of control | [22] 99 % of control | [23] 97 % of control

O=c1cc(CC2(O)CCCCC2)c2ccccc2[nH]1
inactive: [14] 95 % of control | [15] 102 % of control | [16] 95 % of control

O=c1[nH]c2ccccc2n1CCCN1CCN(C(c2ccccc2)c2ccccc2)CC1
inactive: [2] 102 % of control | [3] 94 % of control | [5] 95 % of control

COc1cc(C2c3cc4c(cc3OC(C)(OC)C2C(C)=O)OCO4)cc(OC)c1OC (stereo not drawn)
inactive: [6] 90 % of control | [7] 94 % of control | [8] 95 % of control

O=C1c2ccccc2C(=O)c2nc(CBr)c(CBr)nc21
inactive: dose: 5.0 mg/kg/injection, schedule: Q01DX005 (ip), vehicle: saline 100 % of control | dose: 10.0 mg/kg/injection, schedule: Q01DX005 (ip), vehicle: saline 100 % of control | dose: 20.0 mg/kg/injection, schedule: Q01DX005 (ip), vehicle: saline 97 % of control

CC(C)N1C(=O)c2ccccc2S12c1ccccc1C(=O)N2C(C)C
inactive: [22] 93 % of control | [23] 90 % of control | dose: 400.0 mg/kg/injection, schedule: Q04DX003 (ip), vehicle: Klucel (hydroxypropylcellulose) (HPC) 90 % of control

O=[N+]([O-])c1ccc2c(c1)Oc1cccnc1[Se]2
inactive: [14] 105 % of control | [15] 95 % of control | [16] 90 % of control

O=S(=O)(O/C(=C(\OS(=O)(=O)C(F)(F)F)c1ccccc1)c1ccccc1)C(F)(F)F
inactive: [12] 97 % of control | [13] 98 % of control | [21] 91 % of control

CN=c1ccc2nc3ccc(N)cc3sc-2c1
inactive: dose: 12.5 mg/kg/injection, schedule: Q01DX005 (ip), vehicle: saline 105 % of control | dose: 25.0 mg/kg/injection, schedule: Q01DX005 (ip), vehicle: saline 107 % of control | [1] 103 % of control

CCC1([N+](=O)[O-])CN(C)CC2CCCCN2C1 (stereo not drawn)
inactive: dose: 25.0 mg/kg/injection, schedule: Q04DX002 (ip), vehicle: water 95 % of control | dose: 50.0 mg/kg/injection, schedule: Q04DX002 (ip), vehicle: water 101 % of control | dose: 100.0 mg/kg/injection, schedule: Q04DX002 (ip), vehicle: saline 100 % of control | dose: 100.0 mg/kg/injection, schedule: Q04DX002 (ip), vehicle: water 103 % of control

Cc1cn(CCCOc2c3occc3cc3ccc(=O)oc23)c(=O)[nH]c1=O
inactive: dose: 12.5 mg/kg/injection, schedule: Q01DX005 (ip), vehicle: Klucel (hydroxypropylcellulose) (HPC) 86 % of control | [11] 96 % of control | [12] 88 % of control

CCC(=O)Nc1cc(Cl)cc2[nH]c(C)nc12
inactive: [2] 110 % of control | [3] 99 % of control | [5] 102 % of control

NC(=O)c1ncnc2nc[nH]c12
inactive: dose: 1.56 mg/kg/injection, schedule: Q01DX005 (ip), vehicle: saline with Tween-80 100 % of control and 102 % of control and 96 % of control | dose: 3.13 mg/kg/injection, schedule: Q01DX005 (ip), vehicle: saline with Tween-80 100 % of control and 105 % of control | [18] 111 % of control and 114 % of control

CCOC(=O)C(=O)Nc1cccc(NC(=O)C(=O)OCC)n1
inactive: [6] 100 % of control | [7] 94 % of control

Nc1ncc[nH]c1=O
inactive: [10] 100 % of control | [17] 97 % of control

O=C(Nc1ccc(Cl)c(Cl)c1Cl)/C(Cl)=C1/Sc2ccccc2NC1=O
inactive: [19] 108 % of control | [20] 101 % of control | dose: 200.0 mg/kg/injection, schedule: Q01DX005 (ip), vehicle: saline with Tween-80 101 % of control

From PubChem BioAssay AID330 (DTP/NCI, 2004)
